The results in this text go back to ChEMBL document CHEMBL5316361 (J Nat Prod, 2023).

The structures appear in SMILES notation. Converted amounts (≈) assume the structure as drawn.

For data set [1], the system named is MDA-MB-231. Briefly: Cytotoxicity against human MDA-MB-231 cultured as 2.5D cells assessed as inhibition of cell growth measured after 12 hrs by CellTiter-Glo luciferase detection reagent based assay. Type of data set: functional. As to conditions: MDA-MB-231, 12 h.
The subject of data set [2] is MDA-MB-231. In words: Cytotoxicity against human MDA-MB-231 cells cultured as 3D cells assessed as cell death at 125 ug/ml measured after 12 hrs by tryphan blue based analysis relative to control. Type of data set: functional. As to conditions: dose 125 µg/ml.
The subject of data set [3] is MDA-MB-231. Briefly: Cytotoxicity against human MDA-MB-231 cells cultured as 3D cells assessed as cell death at 125 ug/ml measured after 12 hrs by OCT/imaris based analysis relative to control. Type of data set: functional. As to conditions: dose 125 µg/ml.
Data set [4] in a line: Therapeutic index, ratio of HC50 for sheep RBC to IC50 for cytotoxicity against human MDA-MB-231 cultured as 2D cells. As to conditions: sheep (RBC) and human (MDA-MB-231), sheep red blood cells versus MDA-MB-231 cells, 2D culture; read-out: TI. Type of data set: toxicity, cell-based.
Data set [5] has as its system MDA-MB-231. In words: Cytotoxicity against human MDA-MB-231 cells cultured as 2.5D cells assessed as decrease in live cell count at 125 ug/ml incubated for 12 hrs by tryphan blue based analysis (Rvb=22000x10^3No_unit). The conditions noted are these: dose 125 µg/ml. Type of data set: functional.
The nature of data set [6]: Hemolytic activity in Sheep RBC assessed as hemolysis at 31 ug/ml by microplate reader analysis relative to control. Type of data set: toxicity, cell-based, Ovis aries, Erythrocyte. As to conditions: sheep red blood cells (erythrocytes), at 31 µg/mL, read-out: Activity.
A short description of data set [7]: Selectivity ratio of IC50 for human MDA-MB-231 cultured as 2.5D cells to IC50 for human MDA-MB-231 cultured as 2D cells. Type of data set: functional.
Data set [8] has as its system MDA-MB-231. Briefly: Cytotoxicity against human MDA-MB-231 cells cultured as 2.5D cells assessed as cell death at 125 ug/ml measured after 12 hrs by tryphan blue based analysis relative to control. The conditions noted are these: dose 125 µg/ml. Type of data set: functional.
For data set [9], the system named is MDA-MB-231. In words: Cytotoxicity against human MDA-MB-231 cells cultured as 2.5D cells assessed as cell death at 125 ug/ml measured after 12 hrs by OCT/imaris based analysis relative to control. Type of data set: functional. The conditions noted are these: dose 125 µg/ml.
In data set [10] the test system is MDA-MB-231. Briefly: Cytotoxicity against human MDA-MB-231 cells cultured as 2.5D cells assessed as increase in dead cell count at 125 ug/ml incubated for 12 hrs by tryphan blue based analysis (Rvb=7700x10^3No_unit). Type of data set: functional. As to conditions: dose 125 µg/ml.
In data set [11] the test system is MDA-MB-231. Briefly: Cytotoxicity against human MDA-MB-231 cultured as 3D cells assessed as inhibition of cell growth measured after 12 hrs by CellTiter-Glo luciferase detection reagent based assay. Type of data set: functional. As to conditions: MDA-MB-231, 12 h. For orientation: Cellular ATP, detected with luciferase, serves as a proxy for viable cell number.

In data set [12] the test system is MDA-MB-231. In words: Cytotoxicity against human MDA-MB-231 cells cultured as 3D cells assessed as cell death measured after 12 hrs relative to control. Type of data set: functional.
Data set [13] is described as follows: Therapeutic index, ratio of IC50 for cytotoxicity against human dermal fibroblast cultured as 2.5 D cells to IC50 for cytotoxicity against human MDA-MB-231 cultured as 2.5 D cells. Type of data set: toxicity, cell-based. As to conditions: read-out: TI.
Data set [14] relates to MDA-MB-231. In words: Cytotoxicity against human MDA-MB-231 cells cultured as 3D cells assessed as increase in dead cell count at 125 ug/ml incubated for 12 hrs by tryphan blue based analysis (Rvb=11000x10^3No_unit). Type of data set: functional. As to conditions: dose 125 µg/ml.
Data set [15] in a line: Hemolytic activity against Sheep RBC assessed as hemolysis by microplate reader analysis. Type of data set: toxicity, cell-based, Ovis aries, Erythrocyte. The conditions noted are these: sheep red blood cells (erythrocytes).
A short description of data set [16]: Therapeutic index, ratio of IC50 for cytotoxicity against human dermal fibroblast cultured as 2D cells to IC50 for cytotoxicity against human MDA-MB-231 cultured as 2D cells. Type of data set: toxicity, cell-based. The conditions noted are these: human dermal fibroblasts versus MDA-MB-231 cells, 2D culture, read-out: TI.
In a further data set the test system is Jurkat. In words: Antiproliferative activity against human Jurkat T cells assessed as inhibition of cell growth at 25 ug/ml relative to control. Type of data set: functional.
Data set [17] in a line: Selectivity ratio of IC50 for human MDA-MB-231 cultured as 3D cells to IC50 for human MDA-MB-231 cultured as 2D cells. Type of data set: functional.
In data set [18] the test system is MDA-MB-231. In words: Cytotoxicity against human MDA-MB-231 cells cultured as 2.5D cells assessed as cell death measured after 12 hrs relative to control. Type of data set: functional.
The subject of data set [19] is MDA-MB-231. Briefly: Cytotoxicity against human MDA-MB-231 cells cultured as 3D cells assessed as decrease in live cell count at 125 ug/ml incubated for 12 hrs by tryphan blue based analysis (Rvb=20900x10^3No_unit). The conditions noted are these: dose 125 µg/ml. Type of data set: functional.
Data set [20] in a line: Therapeutic index, ratio of IC50 for cytotoxicity against human dermal fibroblast cultured as 3D cells to IC50 for cytotoxicity against human MDA-MB-231 cultured as 3D cells. Type of data set: toxicity, cell-based. As to conditions: human dermal fibroblasts versus MDA-MB-231 cells, 3D culture, read-out: TI.
Data set [21] in a line: Therapeutic index, ratio of HC50 for Sheep RBC to IC50 for cytotoxicity against human MDA-MB-231 cultured as 2.5D cells. As to conditions: sheep (RBC) and human (MDA-MB-231), sheep red blood cells versus MDA-MB-231 cells, 2.5D culture; read-out: TI. Type of data set: toxicity, cell-based.
Data set [22] in a line: Therapeutic index, ratio of HC50 for Sheep RBC to IC50 for cytotoxicity against human MDA-MB-231 cultured as 3D cells. The conditions noted are these: sheep (RBC) and human (MDA-MB-231), sheep red blood cells versus MDA-MB-231 cells, 3D culture; read-out: TI. Type of data set: toxicity, cell-based.
Data set [23] can be described thus: Cytotoxicity against human dermal fibroblast cultured as 2D cells assessed as reduction in cell viability measured after 12 hrs by CCK8 assay. As to conditions: human dermal fibroblasts (NHDF), 2D culture. Type of data set: toxicity, cell-based. Background: Formazan colour is commonly taken as a measure of viable cells.
The subject of data set [24] is MDA-MB-231. In words: Cytotoxicity against human MDA-MB-231 cultured as 2D cells assessed as inhibition of cell growth measured after 12 hrs by CCK8 assay. Type of data set: functional, cell-based. As to conditions: MDA-MB-231, 12 h.
The subject of data set [25] is MDA-MB-231. In words: Cytotoxicity against human MDA-MB-231 cells cultured as 2.5D cells assessed as cell death at 62.5 ug/ml measured after 12 hrs by OCT/imaris based analysis relative to control. Type of data set: functional. As to conditions: dose 62.5 µg/ml.
In data set [26] the test system is MDA-MB-231. Briefly: Cytotoxicity against human MDA-MB-231 cells cultured as 2.5D cells assessed as decrease in live cell count at 62.5 ug/ml incubated for 12 hrs by tryphan blue based analysis (Rvb=22000x10^3No_unit). Type of data set: functional. The conditions noted are these: dose 62.5 µg/ml.
Data set [27] has as its system MDA-MB-231. Briefly: Cytotoxicity against human MDA-MB-231 cells cultured as 2.5D cells assessed as increase in dead cell count at 62.5 ug/ml incubated for 12 hrs by tryphan blue based analysis (Rvb=7700x10^3No_unit). The conditions noted are these: dose 62.5 µg/ml. Type of data set: functional.
The test system of data set [28] is MDA-MB-231. Briefly: Cytotoxicity against human MDA-MB-231 cells cultured as 3D cells assessed as increase in dead cell count at 62.5 ug/ml incubated for 12 hrs by tryphan blue based analysis (Rvb=11000x10^3No_unit). Type of data set: functional. As to conditions: dose 62.5 µg/ml.
The subject of data set [29] is MDA-MB-231. In words: Cytotoxicity against human MDA-MB-231 cells cultured as 2.5D cells assessed as cell death at 62.5 ug/ml measured after 12 hrs by tryphan blue based analysis relative to control. Type of data set: functional. As to conditions: dose 62.5 µg/ml.
For data set [30], the system named is MDA-MB-231. Briefly: Cytotoxicity against human MDA-MB-231 cells cultured as 3D cells assessed as cell death at 62.5 ug/ml measured after 12 hrs by tryphan blue based analysis relative to control. The conditions noted are these: dose 62.5 µg/ml. Type of data set: functional.
Data set [31] concerns MDA-MB-231. In words: Cytotoxicity against human MDA-MB-231 cells cultured as 3D cells assessed as decrease in live cell count at 62.5 ug/ml incubated for 12 hrs by tryphan blue based analysis (Rvb=20900x10^3No_unit). Type of data set: functional. As to conditions: dose 62.5 µg/ml.
For data set [32], the system named is MDA-MB-231. Briefly: Cytotoxicity against human MDA-MB-231 cells cultured as 3D cells assessed as cell death at 62.5 ug/ml measured after 12 hrs by OCT/imaris based analysis relative to control. The conditions noted are these: dose 62.5 µg/ml. Type of data set: functional.
Data set [33] can be described thus: Growth inhibition of human dermal fibroblast cultured as 2D cells by tryphan blue based analysis. Type of data set: toxicity, cell-based. As to conditions: human dermal fibroblasts (NHDF), 2D culture.

For `CCOC(=O)CCCCCCC/C=C\CCCCCCC(C)O[C@@H]1O[C@H](COC(C)=O)[C@@H](O)[C@H](O)[C@H]1O[C@@H]1O[C@H](COC(C)=O)[C@@H](O)[C@H](O)[C@H]1O` (stereo not given in full), the IC50 (in general, the concentration that inhibits the measured activity by half) in the data set with MDA-MB-231 [1] worked out at 120 µg/mL (≈ 163 µM); in the data set with MDA-MB-231 [11], 130 µg/mL (≈ 177 µM); in the data set on MDA-MB-231 [24] it was 27 µg/mL (≈ 36.7 µM). Also, the Activity in the data set on MDA-MB-231 [2] was 70%; in the data set on MDA-MB-231 [3], 70%; in the data set with MDA-MB-231 [5], 5500 10^3No_unit; in the data set on MDA-MB-231 [8], 70%; in the data set with MDA-MB-231 [9], 70%; with MDA-MB-231 [10] it was 16317 10^3No_unit. For the same compound, the Activity with MDA-MB-231 [12] was 88.2%; in the data set on MDA-MB-231 [14], 22917 10^3No_unit; with MDA-MB-231 [18], 80.2%; in the data set with MDA-MB-231 [19] it was 3667 10^3No_unit. The selectivity ratio in data set [4] was determined as 4.63; in data set [13], 0.36; in data set [16], 1.59; in [20], 0.33; in data set [21], 1.04; in data set [22], 0.96. For the same compound, in data set [6], the hemolysis at 31 ug/ml is more than 10%. Besides, the “Ratio IC50” value in [7] is reported as 4.5; in [17], 5. In data set [15], the HC50 (as a rule, the concentration giving 50% haemolysis) was 125 µg/mL. Further, the inhibition (commonly the relative decrease from the control value, in per cent) at 25 µg/mL with Jurkat was 90%. For the same compound, the IC50 at 12 h in data set [23] is 43 µg/mL (≈ 58.5 µM).

`CC(=O)OC[C@H]1O[C@H]2OC(C)CCCCCC/C=C\CCCCCCCC(=O)O[C@H]3[C@H](O)[C@@H](O)[C@H](O[C@@H]2[C@@H](O)[C@@H]1O)O[C@@H]3COC(C)=O` (stereo not given in full): the IC50 in the data set on MDA-MB-231 [1] was determined as 38 µg/mL (≈ 55.2 µM); in the data set on MDA-MB-231 [11], 33 µg/mL (≈ 47.9 µM); in the data set on MDA-MB-231 [24], 14 µg/mL (≈ 20.3 µM). The Activity with MDA-MB-231 [25] was 70%; with MDA-MB-231 [26] it was 3117 10^3No_unit; with MDA-MB-231 [27], 13933 10^3No_unit; in the data set with MDA-MB-231 [28] it was 17783 10^3No_unit; in the data set with MDA-MB-231 [29] it was 70%; in the data set on MDA-MB-231 [12] it was 89.3%. Further, the Activity with MDA-MB-231 [30] is 70%; with MDA-MB-231 [18], 88.4%; in the data set with MDA-MB-231 [31] it was 3300 10^3No_unit; with MDA-MB-231 [32] it was 70%. Moreover, the selectivity ratio in data set [4] is 8.93; in data set [13], 0.82; in [16] it was 2.21; in data set [20], 0.94; in data set [21], 3.29; in data set [22] it was 3.79. Further, the hemolysis at 31 ug/ml in data set [6] is more than 10%. Also, the “Ratio IC50” value worked out at 3 in [7] and 2.5 in data set [17]. Moreover, the HC50 in data set [15] is 125 µg/mL. In addition, in data set [23], the IC50 at 12 h worked out at 31 µg/mL (≈ 45 µM).

As to `COc1cccc2c1C(=O)c1c(O)c3c(c(O)c1C2=O)C[C@@](O)(C(=O)CO)C[C@@H]3O[C@H]1C[C@H](N)[C@H](O)[C@H](C)O1` [DOXORUBICIN], it took 30 µg/mL (≈ 55.2 µM) to inhibit growth in data set [33] by half (GI50).
